Data from patent publication US10570179B2, “Substituted urea depsipeptide analogs as activators of the CLPP endopeptidase” (priority 2016, dated 2020).
In brackets after ≈: the same amount, converted by molar mass. Numbered stars: 1 amine (or outer) side, 2 acyl side, 3 side chain; on linkers, the order of the positions; unused ones are H or OH. Bridge positions count the residues as written; N and C are the ends. Square brackets hold non-standard residues; d marks the D form. Peptide text beside a SMILES is read from it. * marks the point of attachment. Phe(3-Me) = Cc1cccc(C[C@H](N)C(=O)O)c1; Pro(4R-Me) = C[C@H]1CN[C@H](C(=O)O)C1; Hyp = O=C(O)[C@@H]1C[C@@H](O)CN1; NH(4-Cl-phenyl) = Clc1ccc(N*)cc1; NH(4-F-phenyl) = Fc1ccc(N*)cc1; aThr = C[C@H](O)[C@H](N)C(=O)O; NH(2-F-phenyl) = Fc1ccccc1N*; Pip = O=C(O)[C@@H]1CCCCN1; X7 = Clc1ccc(N*)c(Cl)c1; CO = O=C([*:1])[*:2]

How the values were obtained:
S. aureus ClpP (Sa-ClpP) = molecular target: T1, S. aureus ClpP (Sa-ClpP) (Staphylococcus aureus, UniProt Q2G036); assay: Casein-BODIPY digestion assay (ClpP activation); format: biochemical
T1 construct: made in house; host or cells: E. coli BL21 (DE3)
T1 sequence (Q2G036 whole entry): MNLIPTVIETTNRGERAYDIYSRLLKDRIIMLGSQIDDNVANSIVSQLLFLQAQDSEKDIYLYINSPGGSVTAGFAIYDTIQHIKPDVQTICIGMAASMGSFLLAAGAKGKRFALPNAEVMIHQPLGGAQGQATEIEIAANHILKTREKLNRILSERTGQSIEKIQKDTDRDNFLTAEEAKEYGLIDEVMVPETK
Method: The compounds were assayed in a casein digestion assay in order to determine their effect on ClpP activation. Briefly, the assay was carried out using S. aureus ClpP (“Sa-ClpP”) overexpressed in E. coli BL21 (DE3) and purified in a two-step process. Purity of the protein was assessed through SDS PAGE analysis. EC50 evaluations were conducted in triplicate in a 20 μl assay format using a method adapted from Maurizi et al. (Methods Enzymol. (1994) 244:314-331). Each well contained 10 μM saClpP, 25 μg/ml BODIPY FL casein (Invitrogen Corporation, San Diego, Calif.), and test compound in concentrations ranging between 0-1000 μM in assay buffer (50 mM Tris pH 8, 200 mM KCl, and 1 mM TCEP). The reaction took place at 37° C. Fluorescence (excitation 485 nm; emission 528 nm) was measured in five minute intervals over a 45 min period using a BioTek HT fluorescence microplate reader (BioTek Instruments, Inc., Winooski, Vt.). Velocity of each reaction was calculated and data was fit to a dose response curve using GraphPad Prism® software (GraphPad Software, Inc., La Jolla, Calif.). EC50 is the effective concentration of compound which causes 50% activation of S. aureus ClpP in the foregoing BODIPY FL casein assay.
Alternatively, the assay was carried out using EnzCheck Protease Assay (Molecular Probes, Catalog # E6638). The assay was performed in black 384 well, flat bottom, low volume plates (Greiner Bio-One, Monroe, N.C., catalog #784076). 10 μL of Tris.HCl buffer, pH 8.0 with 0.01% Triton X-100 was pipetted into each well using a Well-Mate (Thermo Scientific, Waltham, Mass.). 0.4 μL test compounds or controls (2% DMSO v/v) were added to each well using a Biomek FX liquid handling robot (Beckman Coulter, Indianapolis, Ind.). After addition of test compounds and controls, 10 μL of master mix containing 2 μM Sa-ClpP and 2 μM substrate (Bodipy-FL labeled casein) in Tris.HCl buffer, pH 8.0 with 0.01% (v/v) Triton X-100, was pipetted into each well. All assays were performed in triplicate, under linear velocity conditions. Increase in fluorescent signal following activation of Sa-ClpP by test compounds and controls was measured over time period of 30 mins using filters with excitation at 485±15 nm and emission at 520±25 nm on a PHERAstar FS Multilabel reader (BMG, Cary, N.C.). Instrument gains and enzyme linear velocity conditions were determined and validated using ADEP4, a known Sa-ClpP activator. Data analysis was done by measuring rate of casein degradation over time (slopes). Computed degradation rates (slopes) were normalized to positive (ADEP4) or negative (DMSO) controls. Using nonlinear regression curve fitting EC50 values and % activation were determined using the equation “log [agonist] vs. Response-variable slope (four parameters)-symmetrical” in the program Prism 6 (GraphPad Software, La Jolla, Calif. USA, www.graphpad.com).

S. aureus USA 300 = assay: Minimal inhibitory concentration, microbroth dilution; format: cell-based; details: Staphylococcus aureus, USA300, read-out: Minimal Inhibitory Concentrations (μM) S. aureus USA 300, MIC
Method: (§1) Minimal inhibitory concentrations (“MICs”) were determined using the microbroth dilution method according to Clinical Laboratory Standards Institute (CLSI; National, C.F. C. L. S., Methods for Dilution Antimicrobial Susceptibility Tests for Bacteria Grow aerobically-Seventh Edition: Approved Standard M7-A7, CLSI, Wayne, Pa., USA, 2008) and were read by visual inspection. Two fold serial dilutions of test compound in 100 μL of the appropriate broth media were first prepared in 96-well round bottom microtiter plates (Nalgene Nunc International, Rochester, N.Y., USA). An equivalent volume (100 μL) of bacterial broth inocula containing approximately 10^5 bacterial cfu/mL was added to each well to give final concentrations of test compound starting at 200 μM. The plates were then incubated aerobically at 37° C. All strains were incubated overnight. After incubations, in all cases the MIC was recorded as the lowest concentration of drug that prevented bacterial growth. The bacterial strains for which MIC was determined as described in Table 4.

MRSA NRS70 = assay: as above; format: cell-based; details: Staphylococcus aureus, read-out: Minimal Inhibitory Concentrations (μM) MRSA NRS70, MIC
Method: as §1

E. faecails = assay: as above; format: cell-based; details: Enterococcus faecalis, read-out: Minimal Inhibitory Concentrations (μM) E. faecails, MIC
Method: as §1

S. aureus ATCC 29213 = assay: as above; format: cell-based; details: Staphylococcus aureus, ATCC29213, read-out: Minimal Inhibitory Concentrations (μM) S. aureus ATCC 29213, MIC
Method: as §1

Row | Structure (SMILES) | EC50 (S. aureus ClpP (Sa-ClpP)) | MIC (S. aureus USA 300) | MIC (MRSA NRS70) | MIC (E. faecails) | MIC (S. aureus ATCC 29213)
1 | Cc1cccc(C[C@H](NC(=O)Nc2ccc(F)cc2)C(=O)N[C@@H]2C(=O)N3C[C@H](O)C[C@H]3C(=O)N3CCCC[C@H]3C(=O)N[C@@H](C)C(=O)N3C[C@H](C)C[C@H]3C(=O)O[C@H]2C)c1 [Compound 79, (S)-2-(3-(4-FLUOROPHENYL)UREIDO)-N-((2R,6S,8AS,14AS,16R,20S,21S,23AS)-16-HYDROXY-2,6,21-TRIMETHYL-5,8,14,19,23-PENTAOXOOCTADECAHYDRO-1H,5H,14H,19H-PYRIDO[2,1-I]DIPYRROLO[2,1-C:2′,1′-L][1]OXA[4,7,10,13]TETRAAZACYCLOHEXADECIN-20-YL)-3-(M-TOLYL)PROPANAMIDE] ({NH(4-F-phenyl)-CO}-[Phe(3-Me)][aThr][Hyp][Pip]A[Pro(4R-Me)]; ester 2-C) | 900 ± 600 nM |  |  |  | 
2 | Cc1cccc(C[C@H](NC(=O)Nc2ccccc2F)C(=O)N[C@@H]2C(=O)N3C[C@H](O)C[C@H]3C(=O)N3CCCC[C@H]3C(=O)N[C@@H](C)C(=O)N3C[C@H](C)C[C@H]3C(=O)O[C@H]2C)c1 [Compound 80, (S)-2-(3-(2-FLUOROPHENYL)UREIDO)-N-((2R,6S,8AS,14AS,16R,20S,21S,23AS)-16-HYDROXY-2,6,21-TRIMETHYL-5,8,14,19,23-PENTAOXOOCTADECAHYDRO-1H,5H,14H,19H-PYRIDO[2,1-I]DIPYRROLO[2,1-C:2′,1′-L][1]OXA[4,7,10,13]TETRAAZACYCLOHEXADECIN-20-YL)-3-(M-TOLYL)PROPANAMIDE] ({NH(2-F-phenyl)-CO}-[Phe(3-Me)][aThr][Hyp][Pip]A[Pro(4R-Me)]; ester 2-C) | 590 ± 400 nM |  |  |  | 
3 | Cc1cccc(C[C@H](NC(=O)Nc2ccc(Cl)cc2Cl)C(=O)N[C@@H]2C(=O)N3C[C@H](O)C[C@H]3C(=O)N3CCCC[C@H]3C(=O)N[C@@H](C)C(=O)N3C[C@H](C)C[C@H]3C(=O)O[C@H]2C)c1 [Compound 78, (S)-2-(3-(2,4-DICHLOROPHENYL)UREIDO)-N-((2R,6S,8AS,14AS,16R,20S,21S,23AS)-16-HYDROXY-2,6,21-TRIMETHYL-5,8,14,19,23-PENTAOXOOCTADECAHYDRO-1H,5H,14H,19H-PYRIDO[2,1-I]DIPYRROLO[2,1-C:2′,1′-L][1]OXA[4,7,10,13]TETRAAZACYCLOHEXADECIN-20-YL)-3-(M-TOLYL)PROPANAMIDE] ({X7-CO}-[Phe(3-Me)][aThr][Hyp][Pip]A[Pro(4R-Me)]; ester 2-C) | 330 ± 100 nM |  |  |  | 
4 | Cc1cccc(C[C@H](NC(=O)Nc2ccc(Cl)cc2)C(=O)N[C@@H]2C(=O)N3C[C@H](O)C[C@H]3C(=O)N3CCCC[C@H]3C(=O)N[C@@H](C)C(=O)N3CCC[C@H]3C(=O)O[C@H]2C)c1 [Compound 59, (S)-2-(3-(4-CHLOROPHENYL)UREIDO)-N-((6S,8AS,14AS,16R,20S,21S,23AS)-16-HYDROXY-6,21-DIMETHYL-5,8,14,19,23-PENTAOXOOCTADECAHYDRO-1H,5H,14H,19H-PYRIDO[2,1-I]DIPYRROLO[2,1-C:2′,1′-L][1]OXA[4,7,10,13]TETRAAZACYCLOHEXADECIN-20-YL)-3-(M-TOLYL)PROPANAMIDE] ({NH(4-Cl-phenyl)-CO}-[Phe(3-Me)][aThr][Hyp][Pip]AP; ester 2-C) | 810 ± 500 nM | 1.25 µM (≈ 1.01 µg/mL) | 1.25 µM (≈ 1.01 µg/mL) | 5 µM (≈ 4.04 µg/mL) | 2.5 µM (≈ 2.02 µg/mL)
